Holding throughout (format): cell membranes, Membrane
Assay [1] can be described thus: Displacement of [3H]KAIN from kainate receptor in rat cortical membranes.
A short description of assay [2]: Displacement of [3H]AMPA from AMPA receptor in rat cortical membranes. (In general: In a radioligand displacement assay an active substance lowers the binding of a labelled ligand.)
For assay [3], the target named is Glutamate NMDA receptor. As to the kind of experiment: Displacement of [3H]CGP39653 from NMDA receptor in rat cortical membranes.

This passage reports IC50 and Ki results from ChEMBL document CHEMBL2424542, “3-Carboxy-pyrazolinalanine as a new scaffold for developing potent and selective NMDA receptor antagonists” (Eur J Med Chem, 2013).

Each structure is given as a SMILES string.

As for `N[C@H](C[C@H]1CC(C(=O)O)=NO1)C(=O)O` (racemic), the IC50 in assay [1] and in assay [2] was above 100 µM each time.
Regarding `N[C@H](C[C@H]1CC(C(=O)O)=NN1c1ccccc1)C(=O)O` (racemic), the IC50 in assay [1] and in assay [2] was above 100 µM each time. Also, in assay [3], the Ki (commonly the equilibrium dissociation constant of an inhibitor or competing ligand from its target) is 0.026 µM.
As to `N[C@H](C[C@@H]1CC(C(=O)O)=NN1c1ccccc1)C(=O)O` (racemic), the half-maximal inhibitory concentration (IC50) in assay [1] and in assay [2] was above 100 µM throughout. The molecule also came in with a Ki in assay [3] of 0.2 µM.
For the molecule `N[C@H](C[C@H]1CC(C(=O)O)=NN1)C(=O)O` (racemic), the IC50 in assay [1] and in assay [2] was above 100 µM each time. Besides, the inhibitory constant (Ki) in assay [3] came out at 0.17 µM.
In the case of `N[C@H](C[C@@H]1CC(C(=O)O)=NN1)C(=O)O` (racemic), the 50% inhibitory concentration (IC50) in assay [1] and in assay [2] was above 100 µM each time. In assay [3], this molecule came in with an inhibitory constant (Ki) of 1.7 µM.
Consider `N[C@H](C[C@H]1CC(C(=O)O)=NN1Cc1ccccc1)C(=O)O` (racemic), for which the IC50 in assay [1] and in assay [2] was above 100 µM throughout. This molecule also had a Ki in assay [3] of 1.4 µM.
In the case of `N[C@H](C[C@@H]1CC(C(=O)O)=NN1Cc1ccccc1)C(=O)O` (racemic), the IC50 in assay [1] and in assay [2] was above 100 µM throughout. Also, the affinity in assay [3] corresponds to a Ki of 9.9 µM.
For `N[C@H](C[C@@H]1CC(C(=O)O)=NO1)C(=O)O` (racemic), the IC50 in assay [1] and in assay [2] was above 100 µM each time.
